Reference: patent US9533023B2, “EIF4E binding peptides” (Agency for Science, Technology and Research, priority 2010, dated 2017)
Square brackets hold non-standard residues; d marks the D form. Ends that are not written are not given here. Ac5c = NC1(C(=O)O)CCCC1; Aib = CC(C)(N)C(=O)O

What was measured:
eIF4E = target: T1, eIF4E (Homo sapiens, UniProt P06730); assay: Fluorescence-based thermal stability (thermal shift) assay, FTS; assay type: binding; details: for eIF4E binding / Tm effect in FTS assay: 10 μM eIF4E, 100 μM peptide
T1 construct: Full length human eIF4E was expressed and purified; made in house
T1 sequence (P06730 whole entry): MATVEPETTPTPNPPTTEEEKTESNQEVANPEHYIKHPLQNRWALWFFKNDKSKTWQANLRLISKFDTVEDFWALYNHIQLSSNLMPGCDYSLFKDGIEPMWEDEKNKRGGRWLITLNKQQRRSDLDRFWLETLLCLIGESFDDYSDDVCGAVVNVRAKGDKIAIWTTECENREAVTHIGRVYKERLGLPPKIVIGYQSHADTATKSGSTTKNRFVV
Text: Full length human eIF4E was expressed and purified as described in Brown, C.
A fluorescence based thermal shift assay was used to screen and rank the rationally designed eIF4E binding derivative peptides. The fluorescent dye Sypro Red was used to monitor thermal denaturation of eIF4E. Binding of the dye molecule to eIF4E, as it unfolds due to thermal denaturation, results in a sharp increase in the fluorescence intensity. The midpoint of this transition is termed the Tm. The thermal shift assay was conducted in the iCycler Real Time Detection System (Bio-Rad, Hercules, Calif.). The system contains a heating/cooling device for accurate temperature control and a charge-coupled device (CCD) detector for simultaneous imaging of the fluorescence changes in the wells of the microplate. […] The final protein concentration was 10 μM. Protein samples were incubated with derivative peptides at a concentration of a 100 μM. The plate was heated from 20 to 90° C. with a heating rate of 1° C./min.
where Ft is the fluorescence intensity at temperature T; Tm is the midpoint temperature of the protein-unfolding transition, Fpre and Fpost are the pretransitional and posttransitional fluorescence intensities, respectively, R is the gas constant, ΔHu is the enthalpy of protein unfolding, and ΔCpu is the heat capacity change on protein unfolding. In the absence of ligand, Tm=T0, ΔCpu=ΔC^T0pu, and ΔHu=ΔH^T0u.
To calculate the ligand-binding affinity at Tm for the derivative eIF4E binding peptides, Eq. (2) was used:
To compare binding affinities for the derivative peptides to eIF4E calculated from the thermal shift data, the binding affinity at temperature T (KL(T))) must be calculated. KL(T) can be calculated from KL(Tm) using Eq. (3A): […]
where KL(T) is the ligand association constant at temperature T, and ΔHL(T) is the van't Hoff enthalpy of binding at temperature T. The value of ΔHL(T) was taken to be 5 kcal/mol.

[1] = tested on: MCF-7 (5′UTR_MYC_Gaussia) cells; assay: WST-1 assay (cell viability); assay type: cell-based; details: 30 μM, 48 hours after treatment
Procedure: MCF-7 (5′UTR_MYC_Gaussia) cells were cultured in DMEM with 10% FCS. Twenty thousand cells were then seeded per well in 48-wells plates in DMEM serum-free media overnight at 37° C. Before overnight incubation, cells were incubated at room temperature for 30 mins. […] After 48 hrs of treatment, MCF-7 cells were incubated with Cell Proliferation Reagent WST-1(Roche) for 30 mins at 37° C. Absorbances of cell media were then read at 450 nm with SpectraMax M5.

[2] = tested on: MCF-7 5′UTR_MYC_Gaussia reporter cell line; assay: Cap-dependent translation cell-based assay (Gaussia luciferase); details: 6 hours
Procedure: To determine the efficacy of these peptides, a cell-based system to assay changes in cap-dependent translation was designed. […] A reporter line derived from the MCF-7 cell line that stably expresses the 5′UTR_MYC_Gaussia reporter was generated. The robustness of this model system was determined using rapamycin, which inhibits cap-dependent translation by inhibiting mTOR from phosphorylating 4EBPs.
MCF-7 (5′UTR_MYC_Gaussia) cells were cultured in DMEM with 10% FCS. Twenty thousand cells were then seeded per well in 48-wells plates in DMEM serum-free media overnight at 37° C. […] Cells were then cultured in media containing 10% FCS with Rapamycin for 24 hrs and at concentrations of 100 nM, 10 nM, 1 nM, 0.1 nM. Gaussia-Luc activities in cells were measured using Gaussia Luciferase Assay Kit (NEB) with SpectraMax M5 (molecular Devices).

[3] = tested on: MCF-7 (5′UTR_MYC_Gaussia) cells; assay: Propidium iodide staining and FACS analysis; assay type: cell-based; details: 48 hrs
Procedure: MCF-7 (5′UTR_MYC_Gaussia) cells were cultured in DMEM with 10% FCS. Two hundred fifty thousand cells were then seeded per well in 6-wells plates containing DMEM serum-free media overnight at 37° C. Before overnight incubation, cells were incubated at room temperature for 30 mins. […] A 1% DMSO and a PBS mock treatment was also carried out. Cells were harvested and fixed in 65% ethanol in PBS and incubated at 4° C. for 2 hrs. Cells were spun down and resuspended with Propidium iodide staining solution containing Rnase A. Cells were analyzed using LSR II (BD).

MCF-7 cells = assay: Annexin staining, flow cytometry; assay type: cell-based; details: 30 μM, 48 hours
Procedure: MCF-7 cells were cultured in DMEM with 10% FCS. Two hundred fifty thousand cells were then seeded per well in 6-wells plates containing DMEM serum-free media overnight at 37° C. […] A mock PBS treatment was also included. Cells were harvested, washed in PBS and spun down at 200 g for 5 mins. Cell pellets were resuspended in Annexin-VFLUOS labeling solution from Roche and incubated for 10-15 min at 15-25° C. Cells were then analyzed using LSR II (BD).

[4] = tested on: endogenous c-myc in MCF-7 cells; assay: Western blot of endogenous c-myc; assay type: cell-based; details: 15 μM peptide, 6 hours, vs PBS
Procedure: MCF-7 cells were cultured in DMEM with 10% FCS. Three hundred fifty thousand MCF-7 cells were then seeded per well in 6-wells plates containing DMEM serum-free media overnight at 37° C. […] A mock PBS treatment was also included. Cells were harvested at 6 hrs and lysed in RIPA buffer. Protein concentration was determined using a Lowry Assay kit (Bio-rad). Samples were loaded at 30 ug and blotted against monoclonal antibody c-myc (Sigma Aldrich #M4439). B-actin was blotted for as a loading control.

For “SEQ ID NO: 31: Tr2_AIB3_A5C with alanine at position 627 (YDRAFLL[Ac5c]FQF; not fully specified (C-terminus))”, the “eIF4E binding / Tm effect in FTS assay” value (eIF4E) was “no significant increase or decrease in potency”.
For GTKKRYDRE*LL5FQF [GT_eIF4G1_me5], the “WST-1 assay, difference versus control peptide” value [1] was “marginally significant”, the “inhibition of cap-dependent translation (luciferase output)” value (“inhibition of cap-dependent translation” for short) ([2]; 100 μM and 200 μM) was “some biological activity in a dose responsive manner” and the “inhibition of cap-dependent translation” value ([2]; non-TAT peptides, 400 μM) was “significant decrease in luciferase output”. The “cell cycle populations (sub G1, G1, S, G2), words” value ([3]; non TAT peptides 400 μM, vs DMSO control) was “significant increase in the sub G1 population”.
In the case of `CC(C)C[C@H](NC(=O)[C@H](Cc1ccccc1)NC(=O)[C@H](CCC(=O)O)NC(=O)[C@H](CCCNC(=N)N)NC(=O)[C@H](CC(=O)O)NC(=O)[C@@H](N)Cc1ccc(O)cc1)C(=O)N[C@@H](CC(C)C)C(=O)NC1(C(=O)N[C@@H](Cc2ccccc2)C(=O)N[C@@H](CCC(N)=O)C(=O)N[C@@H](Cc2ccccc2)C(=O)O)CCCC1` [Tr2_AIB3_A5C, YDREFLL5FQF], the “eIF4E binding / Tm effect in FTS assay” value (eIF4E) is reported as “significantly increased”.
“Tr2_AIB3: Tr2 peptide with G631 replaced by Aib (YDREFLLXFQF; Aib at position 631; Tr2_AIB3)” was tested, and the “eIF4E binding / Tm effect in FTS assay” value (eIF4E) was “increased the Tm”.
For YGRKKRRQRRR [TAT, reference compound], the “annexin staining of cells (apoptosis)” value (MCF-7 cells) was “few cells that could be stained”, the “inhibition of cap-dependent translation” value ([2]; TAT peptides, up to 100 μM) was “not inhibited by TAT alone with only a slight decrease at 100 μM” and the endogenous c-myc expression [4] was “identical”. For the same compound, the “eIF4E binding / Tm effect in FTS assay” value (eIF4E) was “no binding”.
In the case of “GT_eIF4G1: eIF4G1 14mer with N-terminal GT linker, no TAT (GTKKRYDREFLLGFQF; not fully specified (C-terminus))”, the “WST-1 assay, difference versus control peptide” value [1] is reported as “not significant” and the “luciferase activity, difference versus control peptide” value ([2]; 30 μM) is reported as “no significant difference”.
For “Tr2_AIB4: Tr2 peptide with Q633 replaced by Aib (YDREFLLGF[Aib]F)”, the “eIF4E binding / Tm effect in FTS assay” value (eIF4E) was “severely attenuated peptide binding”.
For “Tr2_AIB2: Tr2 peptide with E627 replaced by Aib (YDR[Aib]FLLGFQF)”, the “eIF4E binding / Tm effect in FTS assay” value (eIF4E) was “abolished measurable peptide binding”.
With KRYDRE*LL5FQF [AC13] the “inhibition of cap-dependent translation” value ([2]; non-TAT peptides, 400 μM) was “noticeable drop in activity” and the “drop in thermal shift from AC14 to AC13” value (eIF4E; difference vs AC14) was roughly 2.1 °C.
For “Tr2_AIB1: Tr2 peptide with D625 replaced by aminoisobutyric acid (Aib) (Y[Aib]REFLLGFQF)”, the “eIF4E binding / Tm effect in FTS assay” value (eIF4E) was “severely attenuated peptide binding”.
For “TAT_eIF4G1_Cntrl: control peptide equivalent to TAT_eIF4G1 (YGRKKRRQRRRGTKKRADREFAAGFQF; TAT_eIF4G1_Cntrl)”, the “annexin staining of cells (apoptosis)” value (MCF-7 cells) was “few cells that could be stained”, the “cell cycle populations (sub G1, G1, S, G2), words” value ([3]; TAT fused peptides 30 μM, vs PBS mock) was “no substantive differences” and the endogenous c-myc expression [4] was “identical”.
“SEQ ID NO: 20: 11mer control peptide with the conserved tyrosine mutated to alanine (ADREFLLGFQF; Control) [reference compound]” was tested, and the “eIF4E binding / Tm effect in FTS assay” value (eIF4E) was “all eIF4E binding is lost”.
With “SEQ ID NO: 29: Tr2_AIB3_A5C with alanine at position 625 (YAREFLL[Ac5c]FQF; not fully specified (C-terminus))” the “eIF4E binding / Tm effect in FTS assay” value (eIF4E) was “no significant increase or decrease in potency”.
